Data as given in patent publication US20170147742A1 (priority 2014, published 2017).

Assays:
[1] = system: E. coli containing the lasQS device; experiment: Growth rate of E. coli containing the lasQS inducible device exposed to AHL (microplate OD600); format: cell-based, Escherichia coli; conditions: glucose 20 mM
Experimental: For characterizations of inducible system (lasQS device) in the vector pBbE8K, cells were first grown to stationary phase overnight in LB medium before being diluted 100× into fresh LB medium. The diluted cells were grown to exponential phase (OD600=1), washed and resuspended in supplemented minimal media with varying glucose concentration (20-0.1 mM) as mentioned earlier. Before being subjected to the microplate fluorescence assay, N-(3-Oxododecanoyl)-L-homoserine lactone (3-Oxo-C12-HSL, Sigma-Aldrich) was added to the pre-culture (Top10—pTetR-LasR-pLuxR-RFP) at varying molar concentrations of 10^−7-10^−9 M. The cell cultures were measured for their OD600 and RFP fluorescence for 6 h.
For each promoter, the three OD600 and RFP data were averaged and background absorbance (wells containing only media) and fluorescence (Top10—E8K)) were subtracted from the raw measurements to obtain OD600 and RFP time series. Measurements were obtained in mid-exponential growth and growth rates were calculated as a time derivative of the OD curves, μ=d ln(OD)/dt. The activity of the promoters (RFP synthesis rate per cell) were calculated by, d(RFP)/dt/OD600. Relative promoter units of every promoter studied were calculated by,
The lasQS device used in this study comprised three key components (FIG. 5(A)): the AHL synthetase LasI, the transcription factor LasR, and the lasI promoter. LasI produces the signaling molecule 3-O—C12-HSL (or AHL), and the LasR-AHL complex activates the lasI promoter. First, to examine the characteristics of the lasQS device, we constitutively expressed LasR using a sigma-70 promoter J23105, derived from the BioBrick parts registry (www.partsregistry.org/Part:pSB1K3). The activity of the device was indicated by red fluorescence protein (RFP), which was placed under the control of the lasI promoter. E. coli containing the lasQS device was exogenously exposed to AHL concentrations ranging from 10^−9 M to 10^−7 M and varying glucose concentrations.

[2] = system: wild-type E. coli Top10; experiment: Growth rate of wild-type E. coli Top10 with transcription and translation inhibitors (microplate OD600); format: cell-based, Escherichia coli
Experimental: Seed cultures were grown in LB medium supplemented with 30 μg/ml kanamycin from freshly transformed plates and after 10 to 12 h of overnight growth, pre-cultures were inoculated in fresh LB medium at a dilution of 100× for 2 to 3 h exponential growth (OD600=0.7−1). For characterization of the promoters in the vector pBbE8K, cell cultures were grown in 5 mL of pre-warmed LB medium at 37° C. in 50 mL test tubes, shaken at 225 rpm. The culture tubes were kept in ice for about 5 min to stop further growth and were pelleted by centrifugation for 2 min at 3300 g in 4° C., washed and diluted to OD600=0.1 by resuspension in pre-warmed supplemented minimal media with different glucose concentrations ranging from 20 mM to 0.1 mM. Cultures were then […] into transparent, flat-bottom 96-well plate in triplicate aliquots of […]. The plate was incubated in 37° C. with shaking for 8 min and growth rates were monitored by measuring absorbance at 600 nm and fluorescence were monitored by measuring RFP at excitation 535 nm and emission 600 nm using Synergy HT microplate reader (Biotek) over time. Time series OD600 and RFP data were collected for every 10 min for a total run time of 6 h.
[…] The cells were subjected to a microplate assay to measure their OD600 for 6 h. Three biological replicates were used for all of the experiments conducted.
For each promoter, the three OD600 and RFP data were averaged and background absorbance (wells containing only media) and fluorescence (Top10—E8K)) were subtracted from the raw measurements to obtain OD600 and RFP time series. Measurements were obtained in mid-exponential growth and growth rates were calculated as a time derivative of the OD curves, μ=d ln(OD)/dt. The activity of the promoters (RFP synthesis rate per cell) were calculated by, d(RFP)/dt/OD600. Relative promoter units of every promoter studied were calculated by, […]

[3] = biological target: E. coli RNA polymerase (Escherichia coli, UniProt P0A8V2); conditions: used in simulations, reference (44); read-out: inhibitory potency KI; cited from earlier work
Chain of E. coli RNA polymerase (P0A8V2 whole entry): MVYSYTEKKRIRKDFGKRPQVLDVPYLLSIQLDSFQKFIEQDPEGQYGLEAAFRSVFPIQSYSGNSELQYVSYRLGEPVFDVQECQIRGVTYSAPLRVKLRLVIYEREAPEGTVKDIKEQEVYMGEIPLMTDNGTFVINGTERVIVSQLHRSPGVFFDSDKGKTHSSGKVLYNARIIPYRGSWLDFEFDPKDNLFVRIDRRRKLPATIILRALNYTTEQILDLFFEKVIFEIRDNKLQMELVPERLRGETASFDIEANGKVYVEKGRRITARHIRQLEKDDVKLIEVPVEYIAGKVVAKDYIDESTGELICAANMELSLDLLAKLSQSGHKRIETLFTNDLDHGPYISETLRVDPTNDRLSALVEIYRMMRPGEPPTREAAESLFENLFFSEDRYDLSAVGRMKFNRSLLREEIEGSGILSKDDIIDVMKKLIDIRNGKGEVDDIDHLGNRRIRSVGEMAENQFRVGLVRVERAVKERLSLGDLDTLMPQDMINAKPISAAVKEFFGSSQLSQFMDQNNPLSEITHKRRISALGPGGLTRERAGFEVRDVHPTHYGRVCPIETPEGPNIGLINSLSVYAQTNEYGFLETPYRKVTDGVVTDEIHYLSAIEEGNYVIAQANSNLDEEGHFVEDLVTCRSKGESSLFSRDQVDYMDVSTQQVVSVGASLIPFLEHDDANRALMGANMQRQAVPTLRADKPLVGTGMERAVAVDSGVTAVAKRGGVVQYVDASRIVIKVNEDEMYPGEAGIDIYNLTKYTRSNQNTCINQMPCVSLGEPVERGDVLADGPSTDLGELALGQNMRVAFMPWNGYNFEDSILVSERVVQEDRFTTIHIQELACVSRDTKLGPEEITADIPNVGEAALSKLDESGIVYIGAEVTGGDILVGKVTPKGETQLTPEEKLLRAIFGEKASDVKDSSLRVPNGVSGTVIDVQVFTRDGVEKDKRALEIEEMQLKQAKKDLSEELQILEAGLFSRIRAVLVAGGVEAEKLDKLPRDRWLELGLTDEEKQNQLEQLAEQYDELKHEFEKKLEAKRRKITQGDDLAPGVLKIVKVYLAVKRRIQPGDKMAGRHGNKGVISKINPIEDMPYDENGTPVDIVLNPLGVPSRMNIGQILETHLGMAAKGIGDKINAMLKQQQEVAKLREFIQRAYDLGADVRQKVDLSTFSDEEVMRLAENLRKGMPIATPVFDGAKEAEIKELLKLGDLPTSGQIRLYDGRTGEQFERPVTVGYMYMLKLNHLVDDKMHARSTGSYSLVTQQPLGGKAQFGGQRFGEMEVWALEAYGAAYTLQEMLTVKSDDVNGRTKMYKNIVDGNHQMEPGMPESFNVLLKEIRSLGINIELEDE
Chain of E. coli RNA polymerase (P0A8T7 whole entry partner): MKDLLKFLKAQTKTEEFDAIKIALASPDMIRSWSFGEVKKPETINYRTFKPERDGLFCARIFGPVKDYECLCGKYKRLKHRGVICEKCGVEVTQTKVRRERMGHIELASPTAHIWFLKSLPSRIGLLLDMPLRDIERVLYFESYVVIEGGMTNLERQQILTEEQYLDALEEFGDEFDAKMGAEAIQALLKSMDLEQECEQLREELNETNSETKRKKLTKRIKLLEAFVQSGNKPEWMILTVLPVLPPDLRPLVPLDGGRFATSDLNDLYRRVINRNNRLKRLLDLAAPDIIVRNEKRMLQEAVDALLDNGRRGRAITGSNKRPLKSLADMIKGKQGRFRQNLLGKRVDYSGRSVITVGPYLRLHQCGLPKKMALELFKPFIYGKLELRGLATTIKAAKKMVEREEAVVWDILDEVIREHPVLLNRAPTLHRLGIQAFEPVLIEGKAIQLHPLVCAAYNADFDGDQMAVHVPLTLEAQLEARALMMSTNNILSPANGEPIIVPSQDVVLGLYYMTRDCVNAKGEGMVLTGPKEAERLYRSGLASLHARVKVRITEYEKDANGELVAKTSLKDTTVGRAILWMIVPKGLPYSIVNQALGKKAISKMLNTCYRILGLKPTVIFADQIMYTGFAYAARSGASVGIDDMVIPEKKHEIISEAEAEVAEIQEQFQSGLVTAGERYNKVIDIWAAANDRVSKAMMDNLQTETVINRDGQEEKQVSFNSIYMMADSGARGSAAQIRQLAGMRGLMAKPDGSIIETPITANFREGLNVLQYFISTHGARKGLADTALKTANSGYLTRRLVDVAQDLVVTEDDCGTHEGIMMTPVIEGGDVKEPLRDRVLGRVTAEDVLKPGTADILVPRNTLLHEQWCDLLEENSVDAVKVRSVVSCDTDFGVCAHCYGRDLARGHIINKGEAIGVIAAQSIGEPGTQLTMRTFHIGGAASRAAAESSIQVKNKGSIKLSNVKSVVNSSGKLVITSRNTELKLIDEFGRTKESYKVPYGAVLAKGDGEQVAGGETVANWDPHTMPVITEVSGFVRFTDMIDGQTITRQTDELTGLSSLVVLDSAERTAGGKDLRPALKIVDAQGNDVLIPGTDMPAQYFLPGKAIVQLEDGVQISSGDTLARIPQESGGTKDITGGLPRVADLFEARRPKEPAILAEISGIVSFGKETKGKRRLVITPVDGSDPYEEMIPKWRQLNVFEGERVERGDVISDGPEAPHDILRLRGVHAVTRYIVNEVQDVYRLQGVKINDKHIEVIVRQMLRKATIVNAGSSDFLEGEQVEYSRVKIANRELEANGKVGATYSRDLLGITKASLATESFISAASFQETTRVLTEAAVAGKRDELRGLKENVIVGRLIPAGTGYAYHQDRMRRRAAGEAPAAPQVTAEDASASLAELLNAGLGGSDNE
Chain of E. coli RNA polymerase (P0A7Z4 whole entry partner): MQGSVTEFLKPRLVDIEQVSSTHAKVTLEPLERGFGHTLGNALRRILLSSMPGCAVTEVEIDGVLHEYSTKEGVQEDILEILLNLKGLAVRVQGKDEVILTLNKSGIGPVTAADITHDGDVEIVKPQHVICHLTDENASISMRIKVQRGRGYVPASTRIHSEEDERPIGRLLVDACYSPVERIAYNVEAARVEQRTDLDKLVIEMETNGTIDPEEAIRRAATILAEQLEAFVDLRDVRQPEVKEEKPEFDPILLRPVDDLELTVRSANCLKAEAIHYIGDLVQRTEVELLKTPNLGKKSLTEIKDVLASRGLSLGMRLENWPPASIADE
Chain of E. coli RNA polymerase (P0A800 whole entry partner): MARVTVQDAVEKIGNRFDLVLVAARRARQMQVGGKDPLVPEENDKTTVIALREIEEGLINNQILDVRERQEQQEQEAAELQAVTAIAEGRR

For `CCCCCCCCCC(=O)CC(=O)N[C@H]1CCOC1=O` [AHL, N-(3-Oxododecanoyl)-L-homoserine lactone], the “reduction in growth rate” value ([1]; AHL 10^−7 M) was 23%, the “reduction in growth rate” value ([1]; AHL 10^−8 M) was 13% and the “reduction in growth rate” value ([1]; AHL 10^−9M) was 7%.

For `CO[C@H]1/C=C/O[C@@]2(C)Oc3c(C)c(O)c4c(O)c(c(/C=N/N5CCN(C)CC5)c(O)c4c3C2=O)NC(=O)/C(C)=C\C=C\[C@H](C)[C@H](O)[C@@H](C)[C@@H](O)[C@@H](C)[C@H](OC(C)=O)[C@@H]1C` [rifampicin], the growth rate ([2]; rifampicin 6 μM, maximum glucose concentration) was 0.79 doublings per hour, the growth rate ([2]; rifampicin 8 μM, maximum glucose concentration) was 0.68 doublings per hour and the growth rate ([2]; rifampicin 10 μM, maximum glucose concentration, M9 supplemented media) was 0.55 doubling per hour. The Ki [3] was 1 nM.

Work on `CN(C)[C@@H]1C(O)=C(C(N)=O)C(=O)[C@@]2(O)C(O)=C3C(=O)c4c(O)cccc4[C@@](C)(O)[C@H]3C[C@@H]12` [tetracycline] yielded a growth rate ([2]; tetracycline 4 μM) of 0.19 doublings per hour, a growth rate ([2]; tetracycline concentration of 1) of 0.66 doublings per hour and a growth rate ([2]; tetracycline concentration of 2) of 0.38 doublings per hour.
